Measured values as given in ChEMBL document CHEMBL4406913, “INCB050465 (Parsaclisib), a Novel Next-Generation Inhibitor of Phosphoinositide 3-Kinase Delta (PI3Kδ)” (ACS Med Chem Lett, 2019).
Converted amounts (≈) assume the structure as drawn. The source made the active and inactive calls. The rule behind the calls is not given here.

Columns and labels:
[1] = target: T1, Phosphatidylinositol 4,5-bisphosphate 3-kinase catalytic subunit delta isoform (Homo sapiens) (UniProt O00329)
T1 sequence (whole entry): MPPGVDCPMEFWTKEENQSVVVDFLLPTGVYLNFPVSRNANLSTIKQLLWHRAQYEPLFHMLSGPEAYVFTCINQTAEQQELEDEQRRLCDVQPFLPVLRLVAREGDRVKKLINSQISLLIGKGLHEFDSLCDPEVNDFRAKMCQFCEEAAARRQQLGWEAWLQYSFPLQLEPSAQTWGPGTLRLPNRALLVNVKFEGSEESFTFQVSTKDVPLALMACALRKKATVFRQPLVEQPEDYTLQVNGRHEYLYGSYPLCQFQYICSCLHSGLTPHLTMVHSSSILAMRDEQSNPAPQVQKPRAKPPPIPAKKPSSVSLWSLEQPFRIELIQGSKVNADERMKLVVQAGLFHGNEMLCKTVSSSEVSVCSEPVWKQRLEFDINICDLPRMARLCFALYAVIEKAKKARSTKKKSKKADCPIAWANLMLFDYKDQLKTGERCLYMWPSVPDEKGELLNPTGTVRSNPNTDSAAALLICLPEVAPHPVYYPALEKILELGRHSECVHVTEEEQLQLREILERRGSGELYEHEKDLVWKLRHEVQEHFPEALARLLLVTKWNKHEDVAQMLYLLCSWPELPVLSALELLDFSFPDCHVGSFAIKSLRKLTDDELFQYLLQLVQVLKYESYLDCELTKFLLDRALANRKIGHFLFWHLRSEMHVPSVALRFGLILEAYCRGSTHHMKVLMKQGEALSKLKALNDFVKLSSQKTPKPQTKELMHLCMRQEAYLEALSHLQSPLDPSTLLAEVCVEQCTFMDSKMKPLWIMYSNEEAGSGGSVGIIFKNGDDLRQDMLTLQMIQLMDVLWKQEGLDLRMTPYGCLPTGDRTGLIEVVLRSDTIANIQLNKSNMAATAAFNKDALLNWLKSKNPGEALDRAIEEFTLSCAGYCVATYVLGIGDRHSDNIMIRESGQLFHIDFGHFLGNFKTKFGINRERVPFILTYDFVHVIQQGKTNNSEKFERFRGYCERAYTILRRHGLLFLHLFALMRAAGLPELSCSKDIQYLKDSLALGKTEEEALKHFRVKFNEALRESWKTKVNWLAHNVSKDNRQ
Description: Inhibition of PI3Kdelta (unknown origin) using D-myophosphatidylinositol 4,5-bisphosphate as substrate incubated for 120 mins by [gamma-33P]ATP based SPA assay

[2] = Solubility of the compound at pH 7.4; assay type: physicochemical; conditions: buffer
[3] = Volume of distribution at steady state in rat at 4 mg/kg, iv measured for 24 hrs by LC-MS/MS analysis; assay type: ADME, organism-based; conditions: in vivo, read-out: Vdss
[4] = Oral bioavailability in cynomolgus monkey at 4 mg/kg measured for 24 hrs by LC-MS/MS analysis; assay type: ADME, organism-based, Macaca fascicularis; conditions: in vivo
[5] = Terminal half life in cynomolgus monkey at 2 mg/kg, iv measured for 24 hrs by LC-MS/MS analysis; assay type: ADME, organism-based, Macaca fascicularis; conditions: in vivo, read-out: beta t1/2 (converted)
[6] = target: T2, Phosphatidylinositol 4,5-bisphosphate 3-kinase catalytic subunit delta isoform (Homo sapiens, UniProt O00329); experiment: Inhibition of PI3Kdelta in human Ramos cells assessed as reduction in AKT phosphorylation incubated for 2 hrs by Alexa flour 488 based FACS analysis; assay type: cell-based
T2 sequence (O00329 whole entry): T1 sequence (whole entry)

inhibition [1]: inactive
solubility [2]: 210 µg/mL (≈ 485 µM)
Vd [3]: 1.54 L/kg
bioavailability [4]: 79%
half-life [5]: 7.3 h
IC50 [6]: 1.1 nM
SMILES: CCOc1c([C@H](C)n2nc(C)c3c(N)ncnc32)cc(Cl)c(F)c1[C@@H]1CNC(=O)C1 [PARSACLISIB]
